Where “and” joins values, the source holds several entries; their conditions need not be identical. Equal entries are not always repeated.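 Cultured in 96-well plates, cells were exposed to test compound for 48 hours across five concentrations. At the GI50, growth is halved. TGI denotes the concentration required for complete inhibition of growth.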
Columns and labels:
Assay in all cases: DTP human tumour cell line panel, 48 h
DU-145 prostate = system: DU-145 prostate
HCT-15 colon = system: HCT-15 colon
HL-60(TB) leukemia = system: HL-60(TB) leukemia
HS 578T breast = system: HS 578T breast
KM12 colon = system: KM12 colon
MOLT-4 leukemia = system: MOLT-4 leukemia
OVCAR-4 ovarian = system: OVCAR-4 ovarian
SF-268 CNS = system: SF-268 CNS
SK-MEL-2 melanoma = system: SK-MEL-2 melanoma
SK-MEL-5 melanoma = system: SK-MEL-5 melanoma

SMILES | GI50 (DU-145 prostate) | TGI (DU-145 prostate) | GI50 (HCT-15 colon) | TGI (HCT-15 colon) | GI50 (HL-60(TB) leukemia) | TGI (HL-60(TB) leukemia) | GI50 (HS 578T breast) | TGI (HS 578T breast) | GI50 (KM12 colon) | TGI (KM12 colon) | GI50 (MOLT-4 leukemia) | TGI (MOLT-4 leukemia) | GI50 (OVCAR-4 ovarian) | TGI (OVCAR-4 ovarian) | GI50 (SF-268 CNS) | TGI (SF-268 CNS) | GI50 (SK-MEL-2 melanoma) | TGI (SK-MEL-2 melanoma) | GI50 (SK-MEL-5 melanoma) | TGI (SK-MEL-5 melanoma)
CN1CCN(Cc2ccc(-c3cc4ncnc(Nc5ccc(OCc6cccc(F)c6)c(Cl)c5)c4s3)o2)CC1 | 4.03 µM | 7.47 µM | 2.92 µM | 6.39 µM | 4.62 µM | 9.34 µM | 5.57 µM | 12.7 µM | 4.44 µM | 8.19 µM | 4.47 µM | 9.39 µM | 3.69 µM | 7.5 µM | 4.07 µM | 8.7 µM | 5.33 µM | 10.2 µM | 3.77 µM | 7.54 µM
C=C1C(=O)O[C@@H]2C[C@@H]1CC[C@]1(C)O[C@H]1CC[C@@]1(C)O[C@@H]1CC[C@@]2(C)O | 35 µM | > 100 µM | 29.2 µM | > 100 µM | 15.2 µM | 46.5 µM | 22.7 µM | 67.3 µM | > 100 µM | > 100 µM | 13.5 µM | 36.7 µM | 13.7 µM | 33.1 µM | > 100 µM | > 100 µM | 50.1 µM | > 100 µM | 14 µM | 34.8 µM
CCNC(=O)C[C@@H]1N=C(c2ccc(Cl)cc2)c2cc(OC)ccc2-n2c(C)nnc21 | > 100 µM | > 100 µM | 3.77 µM | > 100 µM | 0.275 µM | 38.1 µM | 0.796 µM | > 41.5 µM | 27.1 µM | > 100 µM | > 44.2 µM | > 100 µM | 5.93 µM | > 100 µM | > 53.6 µM | > 100 µM | 3.28 µM | > 100 µM |  | > 100 µM
CC(O)C1OC(O)C2OC(C)(C)OC12 (stereo not given) |  | > 100 µM |  | > 100 µM |  | > 100 µM |  | > 100 µM |  | > 100 µM |  | > 100 µM |  | > 100 µM |  | > 100 µM |  | > 100 µM |  | > 100 µM
Cc1[nH]c(=O)[nH]c(=O)c1N(CCF)CCCl |  | 1410 µM | 182 µM and 310 µM and 186 µM | 503 µM and 486 µM and 1330 µM | 42.6 µM | 246 µM and 302 µM and 219 µM |  | 1660 µM | 280 µM and 508 µM | 824 µM and 1330 µM and 719 µM | 60.8 µM and 80.6 µM and 43.1 µM | 254 µM and 393 µM and 563 µM | 230 µM | 461 µM and 755 µM | 192 µM and 329 µM | 651 µM and 1120 µM and 1100 µM | 239 µM | 447 µM and 832 µM and 808 µM | 388 µM | 394 µM and 788 µM and 699 µM
CCC/C(=N\NC(=S)N1CCN(c2ccccn2)CC1)c1ccccn1 |  | 2.37 µM |  | 1.55 µM and 1.75 µM |  | 0.0458 µM |  | 3.76 µM |  | 0.64 µM and 1.52 µM | 0.00925 µM | > 10 µM and 1.05 µM | 0.0398 µM | > 5.77 µM and 2.31 µM |  | > 10 µM and 1.85 µM | 0.19 µM | 0.312 µM and 1.65 µM |  | 2.41 µM and 1.57 µM
COC(=O)/C=C/c1cc(O)c2c(c1)C(C(=O)OC)C(c1ccc(O)c(O)c1)O2 (stereo not given) | 0.372 µM and 0.053 µM | > 100 µM | 0.0991 µM | 68.8 µM and > 100 µM | 0.0845 µM and 0.0298 µM | 0.164 µM and 0.106 µM | 0.468 µM and 0.0614 µM | > 100 µM | 0.395 µM | 20.7 µM and 16.6 µM | 0.12 µM and 0.0553 µM | 25.3 µM and 27.8 µM | 0.34 µM and 0.353 µM | 62.2 µM and > 75.9 µM | 0.721 µM and 0.0833 µM | > 89.8 µM | 0.454 µM and 0.093 µM | 35.2 µM and > 55 µM | < 0.0455 µM and 0.0566 µM | 5.45 µM and 4.29 µM
CC1=C(C)C(=O)c2c(c(C(=O)c3ccccc3)c3nc4ccccc4n3c2C)C1=O | 63.5 µM | > 100 µM | > 100 µM | > 100 µM | > 100 µM | > 100 µM | 35.4 µM | > 100 µM | > 100 µM | > 100 µM | > 100 µM | > 100 µM | > 100 µM | > 100 µM | 28.6 µM | > 100 µM | 47.8 µM | > 100 µM | > 100 µM | > 100 µM
CC(C)(C)[Si](C)(C)OCC1CCC(n2cnc3c(NC(=O)c4ccccc4)ncnc32)O1 (stereo not given) |  | 37 µM |  | 39.2 µM |  | 38.2 µM |  | 33 µM |  | 31.3 µM |  | 39.6 µM |  | 39.5 µM |  | 33.4 µM |  | 45.6 µM |  | 23.7 µM
OCCN(CCO)N=Nc1ccc(-c2nc3ccccc3[nH]2)cc1 | 20.9 µM | 46.6 µM | 21.8 µM | 51.2 µM | 10.8 µM | 32.1 µM | 23.5 µM | 72.8 µM | 16.3 µM | 55.4 µM | 14.4 µM | 38.5 µM | 15.9 µM | 36.1 µM | 3.31 µM | 40.5 µM | 41.2 µM | > 100 µM | 20.2 µM | 53.4 µM
O=C(Nc1ccc(Cl)c([N+](=O)[O-])c1)Nc1nc2ccccc2s1 | 4.22 µM | 14.6 µM | 3.32 µM | 15.5 µM | 4.48 µM | 24 µM | 2.85 µM | 12.3 µM | 2.82 µM | 8.32 µM | 3.76 µM | 17.1 µM | 4.21 µM | 26 µM | 4.49 µM | 16.6 µM | 2.37 µM | 5.32 µM | 1.88 µM | 4.17 µM

Reference: PubChem BioAssay (NCI)
